Patent US20090270342A1, “IMMUNOREGULATORY AGENT” (priority 2006, published 2009)

Test system: anti-OVA-IgE, IgG1, IgG2a in serum
Test: Induction of anti-OVA antibodies by third OVA sensitization in already sensitive mice (Experiment 7)
Type: in vivo
Details: for Anti-OVA-IgE in serum / Anti-OVA-IgG1 in serum / Anti-OVA-IgG2a in serum: two weeks after third sensitization of OVA-sensitive mice; for Anti-OVA-IgE in serum, relative to control / Anti-OVA-IgG1 in serum, relative to control / Anti-OVA-IgG2a in serum, relative to control: after third sensitization
Experimental: In order to investigate the effect of lactosucorse on systemic immunity, antibody level in serum was measured. Similarly as in Experiment 1, female BALB/c mice (six weeks old) were preliminary reared for one week on “AIN-93G”, the same standard purified diet as used in Experiment 1. Successively, “NYU-KA OLIGO 700”, a saccharide composition comprising 71.4% (w/w), on a dry solid basis, of lactosucrose commercialized by Hayashibara Shoji Inc., Okayama, Japan, was incorporated into the above purified diet, in which corn starch equal to the amount of the saccharide composition comprising lactosucrose had been removed, to give a lactosucrose content of 2% (w/w) or 5% (w/w), and five to seven mice/group were allowed to ingest the resulting test diet freely. Mice, allowed to ingest “AIN-93G”, as the standard purified diet, were used as control. At 10 days after from starting the administration of the test diet, mice were sensitized to antigen by administrating 20 μg of ovalbumin (OVA) (grade V, commercialized by Sigma Corporation) as antigen and 4.5 mg of “IMJECT®”, alum commercialized by Pierce ThermoScientific as adjuvant, into the peritoneal cavity. Successively, 15 days after from the first sensitization, the second sensitization was carried out by the same procedure. The blood was collected from caudal vein of mice at one, two, and three weeks after from the second sensitization, the serum was collected by centrifugation, and the amount of IgE to OVA was measured by EIA. In the cases of IgG1 and IgG2a, the amount of antibody was measured using serum collected at two weeks after from the second sensitization. The IgE and IgG2a titers were measured by capture EIA and IgG1 titer was measured by indirect EIA. Each titer was calculated by calibration curve prepared by using anti-OVA mouse serum (IgE: 1.760 U/ml, IgG1: 128,000 U/ml, IgG2a: 7,040 u/ml) as a standard serum. The amounts of IgE at one, two, or three weeks after from the second sensitization are in Table 5, and the amounts of IgG1 and IgG2a of two weeks after from the second sensitization are in Table 6. The percentages in parentheses in tables mean a relative value to the antibody concentration in serum of the control mice.
Considering the application of lactosucrose to allergic patients, mice which had been made sensitive to OVA by sensitizing with OVA were prepared and the suppressing effect of lactosucrose on the production of anti-OVA-IgE when exposed to OVA was investigated by allowing the above mice to ingest lactosucrose. Female BALB/c mice (six weeks old, five mice/group) were preliminary reared for one week on “AIN-93G”, the same standard purified diet as used in Experiment 1. Successively, similarly as in Experiment 4, 20 μg of OVA, and 4.5 mg of alum were administrated to the peritoneal cavity of the mice and further reared for two weeks on the above standard diet. Then, the second sensitization of OVA and alum was carried out by the same procedure as used in the first sensitization. After two weeks, the mice were reared for further six weeks on the test diet comprising 2% (w/w) or 5% (w/w) lactosucrose, used in Experiment 1. After checking the mice being sensitive to OVA by measuring the amount of IgE, OVA and alum were administrated to them by the same procedure as used in the first and second sensitizations. After rearing two weeks on the test diet, blood was collected from respective mice and the concentrations of anti-OVA-IgE, anti-OVA-IgG1, and anti-OVA-IgG2a were determined by the same method as used in Experiment 4.

[1] = Lactosucrose 5% (w/w), listed as lactosucrose

## OC[C@H]1O[C@@H](O[C@H]2[C@H](O)[C@@H](O)[C@@H](O[C@]3(CO)O[C@H](CO)[C@@H](O)[C@@H]3O)O[C@@H]2CO)[C@H](O)[C@@H](O)[C@H]1O [Lactosucrose, β-D-galactosyl-(1,4)-α-D-glucosyl-(1,2)-β-D-fructoside]
Lactosucrose 2% (w/w) diet
  Anti-OVA-IgE in serum: 1,450 ± 561 U/ml
  Anti-OVA-IgG1 in serum: 678 ± 176 ×10^4 U/ml
  Anti-OVA-IgG2a in serum: 12.4 ± 5.02 ×10^4 U/ml
Lactosucrose 2% (w/w)
  Anti-OVA-IgE in serum, relative to control: (72%)
  Anti-OVA-IgG1 in serum, relative to control: (111%)
  Anti-OVA-IgG2a in serum, relative to control: (120%)
Lactosucrose 2% (w/w), listed as lactosucrose
  Anti-OVA-IgE in serum, relative to control: 72%
Lactosucrose 5% (w/w) diet
  Anti-OVA-IgE in serum: 1,250 ± 264 U/ml
  Anti-OVA-IgG1 in serum: 365 ± 35.1 ×10^4 U/ml
  Anti-OVA-IgG2a in serum: 5.77 ± 1.93 ×10^4 U/ml
Lactosucrose 5% (w/w)
  Anti-OVA-IgE in serum, relative to control: (62%)
  Anti-OVA-IgG1 in serum, relative to control: (60%)
  Anti-OVA-IgG2a in serum, relative to control: (56%)
[1]
  Anti-OVA-IgE in serum, relative to control: 62%
  Anti-OVA-IgG1 in serum, relative to control: about 50%
  Anti-OVA-IgG2a in serum, relative to control: about 50%
